In patent US20220202963A1, “RADIOLABELED COMPOUNDS” (Hoffmann-La Roche Inc., priority 2019, published 2022):

Key:
MAGL [1] = molecular target: T1, MAGL (Homo sapiens, UniProt Q99685); experiment: 2-AG assay (MAGL inhibitory activity, hydrolysis of 2-arachidonoylglycerol followed by mass spectrometry); assay type: biochemical; conditions: 50 pM MAGL, 8 μM 2-arachidonoylglycerol, 15 min pre-incubation, 30 min at RT
T1 sequence (Q99685 1-303): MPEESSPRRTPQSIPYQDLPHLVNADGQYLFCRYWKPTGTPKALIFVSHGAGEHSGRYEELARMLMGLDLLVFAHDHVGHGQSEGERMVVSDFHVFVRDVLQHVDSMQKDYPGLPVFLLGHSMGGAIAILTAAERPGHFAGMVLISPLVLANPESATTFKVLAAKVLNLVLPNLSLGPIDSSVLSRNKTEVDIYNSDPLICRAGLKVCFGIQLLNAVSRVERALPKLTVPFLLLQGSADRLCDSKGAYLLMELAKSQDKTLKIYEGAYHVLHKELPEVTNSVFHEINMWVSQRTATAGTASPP
Experimental: Compounds were profiled for MAGL inhibitory activity by determining the enzymatic activity by following the hydrolysis of the natural substrate, 2-arachidonoylglycerol, resulting in arachidonic acid, which can be followed by mass spectrometry. This assay is hereinafter abbreviated “2-AG assay”.
A C18 SPE cartridge (G9205A) was used in an acetonitrile/water liquid setup. […] The activity of the compounds was calculated based on the ratio of intensities [arachidonic acid/d8-arachidonic acid].

MAGL [2] = molecular target: T2, MAGL (Rattus norvegicus, UniProt Q8R431); experiment: In vitro autoradiography of 11C tracers on sagittal brain sections from Wistar rats
T2 sequence (Q8R431 1-303): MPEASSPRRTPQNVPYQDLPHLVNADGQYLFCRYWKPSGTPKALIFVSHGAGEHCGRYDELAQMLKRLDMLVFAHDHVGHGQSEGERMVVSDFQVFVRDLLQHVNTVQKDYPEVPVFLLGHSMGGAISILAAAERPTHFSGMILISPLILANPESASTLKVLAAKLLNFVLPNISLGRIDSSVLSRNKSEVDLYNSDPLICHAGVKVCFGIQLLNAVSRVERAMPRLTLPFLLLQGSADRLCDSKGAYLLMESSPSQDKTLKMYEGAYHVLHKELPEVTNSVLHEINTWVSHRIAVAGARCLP
Experimental: 10 μm sagittal brain sections from Wistar rats were used in in vitro autoradiography. On the day of experimentation, the slices were thawed on ice (10 min) and pre-conditioned in an aqueous buffer containing 30 mM 4-(2-hydroxyethyl)-1-piperazineethanesulfonic acid (HEPES), 1.2 mM MgCl2, 110 mM NaCl, 5 mM KCl, 2.5 mM CaCl2, and 1% fatty-acid-free bovine serum albumin (pH 7.4, 0° C.) for 10 min. The tissue samples were dried in air and subsequently incubated with radiotracer or a mixture of radiotracer and a cold MAGL inhibitor as a blocker at ambient temperature for 30 min. Upon completion of the incubation time, the slices were washed once for 3 min in the aqueous buffer described above, and twice for 2 min in the aqueous buffer described without 1% fatty-acid-free bovine serum albumin. After two quick dips in distilled water, the sections were dried in the air and exposed to a phosphor image plate for 1 h. The films were scanned by a BAS5000 reader (Fuji), and the data were analyzed using AIDA software, version 4.50.010 (Raytest Isotopenmessgeräte GmbH). For [^11C]1, 10 μM SAR127303 and 10 μg/mL 10 were used as blockers.

MAGL [3] = molecular target: T3, MAGL (Mus musculus, UniProt O35678); experiment: In vitro autoradiography of 3H ligands on sagittal mouse brain sections (MAGL WT and ko); conditions: 1 nM radioligand, 30 min; for binding on wt tissue samples (autoradiography): MAGL WT mouse brain sections; for binding on MAGL ko tissue sections (autoradiography; selectivity, non-specific binding): MAGL ko mouse brain sections
T3 sequence (O35678 1-303): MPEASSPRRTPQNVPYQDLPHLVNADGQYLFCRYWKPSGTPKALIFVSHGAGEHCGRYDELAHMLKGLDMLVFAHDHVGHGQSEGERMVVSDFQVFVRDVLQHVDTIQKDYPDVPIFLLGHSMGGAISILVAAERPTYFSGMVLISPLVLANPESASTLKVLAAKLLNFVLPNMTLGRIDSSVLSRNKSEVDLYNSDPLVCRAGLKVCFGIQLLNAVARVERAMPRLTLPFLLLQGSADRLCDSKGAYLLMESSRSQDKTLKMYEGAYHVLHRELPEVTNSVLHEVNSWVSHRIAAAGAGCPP
Experimental: Receptor autoradiography was performed on sagittal sections of fresh-frozen brains from MAGL WT and ko mice (C57BL6/6NTac-Mgllem4993_02Tac). Tissue sections (10 μm) from brain specimens were cut in a cryostat (Leica CM3050) at −17° C. chamber temperature and −15° C. object temperature and thaw-mounted on microscope glass slides (HistoBond, Paul Marienfeld GmbH, Lauda-Königshofen, Germany). Brain sections were incubated for 30 min in 50 mM Tris-HCl buffer pH 7.4 with 0.1% BSA at RT containing 1 nM of the radioligand. Sections were rinsed three times for 10 min in ice-cold 50 mM Tris-HCl buffer, followed by three dips into ice-cold H2O and air-dried at 4° C. before being exposed to tritium-sensitive imaging plates (BAS-IP TR2025, Fujifilm, Dielsdorf, Switzerland) with a tritium microscale for 5 days at RT. The imaging plates were scanned with a high-resolution phosphor imager (Fuji BAS-5000, Bucher Biotec AG, Basel, Switzerland) and the binding intensity for selected brain areas was quantified using an MCID M2 image analysis software (version 7; InterFocus Imaging GmbH, Mering, Germany).

MAGL [4] = molecular target: T2, MAGL; experiment: In vivo binding to MAGL assessed by ex vivo autoradiography in CD(SD) rats; design: 10 μm sagittal brain sections from Wistar rats were used in in vitro autoradiography; from tissue; host or cells: rat brain (Wistar sections; CD(SD) rats dosed in vivo); conditions: male CD(SD) rats, 1 mCi/kg i.v., 90 min post injection; blocked by a high dose of a MAGL inhibitor
Experimental: Rats were sacrificed by decapitation 90 min after administration of the radioligand. Brains were rapidly removed and divided in two halves along their sagittal axis. The brain halves were frozen in dry ice for following cryosectioning. The hemisphere was placed in a cryostat and sagittal sections (10 μm thickness) were cut. Brain sections were mounted on Histobond glass slides (Marienfeld Laboratories Glassware, Germany), dried at room temperature and exposed, together with tritium microscales, to tritium-sensitive imaging plates (BAS-TR2025) for five days. The imaging plates were scanned in a Fujifilm BAS-5000 high resolution phosphor imager and the amount of [^3H]2 bound to the brain regions of interest was quantified with an MCID M2 image analysis system (Imaging Research Inc., St. Catherines, Ontario, Canada).

Compound O=C1CO[C@H]2CCN(C(=O)N3CC(c4ccc(C5CCC5)cc4)C3)C[C@H]2N1 [Example 5, (4aR,8aS)-6-[3-(4-Cyclobutylphenyl)azetidine-1-carbonyl]-4,4a,5,7,8,8a-hexahydropyrido[4,3-b][1,4]oxazin-3-one] has an IC50 (MAGL [1]) of 1 nM.
Cc1ccc(/C(F)=C\C2CN(C(=O)N3CC[C@@H]4OCC(=O)N[C@@H]4C3)C2)cc1F [Example 12, (4aR,8aS)-6-[3-[(E)-2-Fluoro-2-(3-fluoro-4-methyl-phenyl)vinyl]azetidine-1-carbonyl]-4,4a,5,7,8,8a-hexahydropyrido[4,3-b][1,4]oxazin-3-one] showed an IC50 (MAGL [1]) of 40 nM.
Work on Cc1ccc(/C(F)=C/C2CN(C(=O)N3CC[C@@H]4OCC(=O)N[C@@H]4C3)C2)cc1F [Example 11, (4aR,8aS)-6-[3-[(Z)-2-Fluoro-2-(3-fluoro-4-methyl-phenyl)vinyl]azetidine-1-carbonyl]-4,4a,5,7,8,8a-hexahydropyrido[4,3-b][1,4]oxazin-3-one] yielded an IC50 (MAGL [1]) of 90 nM.
In the case of O=C1CO[C@H]2CCN(C(=O)N3CC4(CC(Cc5c(F)cccc5F)C4)C3)C[C@H]2N1 [Example 6, (4aR,8aS)-6-[6-[(2,6-Difluorophenyl)methyl]-2-azaspiro[3.3]heptane-2-carbonyl]-4,4a,5,7,8,8a-hexahydropyrido[4,3-b][1,4]oxazin-3-one], the IC50 (MAGL [1]) is reported as 0.1 nM.
Work on CC(C)COc1ccc(C2CN(C(=O)N3CC[C@@H]4OCC(=O)N[C@@H]4C3)C2)cc1 [Example 9, (4aR,8aS)-6-[3-(4-isobutoxyphenyl)azetidine-1-carbonyl]-4,4a,5,7,8,8a-hexahydropyrido[4,3-b][1,4]oxazin-3-one] yielded an IC50 (MAGL [1]) of 1 nM.
In the case of O=C1CO[C@H]2CCN(C(=O)N3CC(c4ccc(C5CCC5)cc4)C3)C[C@H]2N1 [Example [^11C]5, [^11C](4aR,8aS)-6-[3-(4-Cyclobutylphenyl)azetidine-1-carbonyl]-4,4a,5,7,8,8a-hexahydropyrido[4,3-b][1,4]oxazin-3-one], the “binding to MAGL on sagittal rat brain sections (autoradiography)” value (MAGL [2]; Wistar rat brain sections, radiotracer alone, 30 min) is reported as “selectively bind to MAGL” and the “blocking of binding by cold MAGL inhibitors” value (MAGL [2]; co-incubation with blockers (10 μM SAR127303 and 10 μg/mL 10 for [11C]1; 10 μM SAR127303 and 10 μM PF-06795071 for [11C]5)) is reported as “binding can be blocked”.
For Cc1ccc(C(F)=CC2CN(C(=O)N3CC[C@@H]4OCC(=O)N[C@@H]4C3)C2)cc1F (mixture of isomers) [Example 10, (4aR,8aS)-6-[3-[2-Fluoro-2-(3-fluoro-4-methyl-phenyl)vinyl]azetidine-1-carbonyl]-4,4a,5,7,8,8a-hexahydropyrido[4,3-b][1,4]oxazin-3-one], the IC50 (MAGL [1]) was 20 nM.
Work on COc1ccccc1CC1CC2(C1)CN(C(=O)N1CC[C@@H]3OCC(=O)N[C@@H]3C1)C2 [Example 7, (4aR,8aS)-6-[6-[(2-Methoxyphenyl)methyl]-2-azaspiro[3.3]heptane-2-carbonyl]-4,4a,5,7,8,8a-hexahydropyrido[4,3-b][1,4]oxazin-3-one] yielded an IC50 (MAGL [1]) of 0.2 nM.
Work on COc1cccc(F)c1CC1CC2(C1)CN(C(=O)N1CC[C@@H]3OCC(=O)N[C@@H]3C1)C2 [Example 2, (4aR,8aS)-6-[6-[(2-Fluoro-6-methoxy-phenyl)methyl]-2-azaspiro[3.3]heptane-2-carbonyl]-4,4a,5,7,8,8a-hexahydropyrido[4,3-b][1,4]oxazin-3-one] yielded an IC50 (MAGL [1]) of 0.07 nM.
For Cc1ccc(CCC2CN(C(=O)N3CC[C@@H]4OCC(=O)N[C@@H]4C3)C2)c(F)c1 [Example [^3H]3, [^3H](4aR,8aS)-6-[3-[2-(2-Fluoro-4-methyl-phenyl)ethyl]azetidine-1-carbonyl]-4,4a,5,7,8,8a-hexahydropyrido[4,3-b][1,4]oxazin-3-one], the “binding on wt tissue samples (autoradiography)” value (“binding on wt tissue samples” below) (MAGL [3]) was “Selective binding to MAGL” and the “binding on MAGL ko tissue sections (autoradiography; selectivity, non-specific binding)” value (MAGL [3]) was “absence of binding”.
Compound Cc1ccc(CCC2CN(C(=O)N3CC[C@@H]4OCC(=O)N[C@@H]4C3)C2)c(F)c1 [Example 3, (4aR,8aS)-6-[3-[2-(2-Fluoro-4-methyl-phenyl)ethyl]azetidine-1-carbonyl]-4,4a,5,7,8,8a-hexahydropyrido[4,3-b][1,4]oxazin-3-one] has an IC50 (MAGL [1]) of 5 nM.
In the case of COc1ccc(CCC2CN(C(=O)N3CC[C@@H]4OCC(=O)N[C@@H]4C3)C2)c(C(F)(F)F)c1 [Example 4, (4aR,8aS)-6-[3-[2-[4-Methoxy-2-(trifluoromethyl)phenyl]ethyl]azetidine-1-carbonyl]-4,4a,5,7,8,8a-hexahydropyrido[4,3-b][1,4]oxazin-3-one], the IC50 (MAGL [1]) is reported as 6 nM.
In the case of COc1ccc(CCC2CN(C(=O)N3CC[C@@H]4OCC(=O)N[C@@H]4C3)C2)c(C(F)(F)F)c1 [Example [^3H]4, [^3H](4aR,8aS)-6-[3-[2-[4-Methoxy-2-(trifluoromethyl)phenyl]ethyl]azetidine-1-carbonyl]-4,4a,5,7,8,8a-hexahydropyrido[4,3-b][1,4]oxazin-3-one], the “binding on wt tissue samples” value (MAGL [3]) is reported as “Selective binding to MAGL” and the “binding on MAGL ko tissue sections (autoradiography; selectivity, non-specific binding)” value (MAGL [3]) is reported as “absence of binding”.
With COc1cccc(F)c1CC1CC2(C1)CN(C(=O)N1CC[C@@H]3OCC(=O)N[C@@H]3C1)C2 [Example [^3H]2, [^3H](4aR,8aS)-6-[6-[(2-Fluoro-6-methoxy-phenyl)methyl]-2-azaspiro[3.3]heptane-2-carbonyl]-4,4a,5,7,8,8a-hexahydropyrido[4,3-b][1,4]oxazin-3-one] the “binding on wt tissue samples” value (MAGL [3]) was “Selective binding to MAGL”, the “binding on MAGL ko tissue sections (autoradiography; selectivity, non-specific binding)” value (MAGL [3]) was “absence of binding” and the “in vivo binding to MAGL in brain (ex vivo autoradiography)” value (MAGL [4]) was “Selective and specific binding to MAGL”.
